From patent US20240383908A1, “SYNTHESIS AND APPLICATION OF PHOSPHATASE DEGRADER” (HINOVA PHARMACEUTICALS INC., priority 2021, published 2024)
Where a name gives a salt, the structure may show the parent alone.

molecular target: T1, SHP2 protein (Homo sapiens, UniProt Q06124); experiment: Degradation activity on SHP2 protein in MIA Paca-2 cells (Western blot, DC50); format: cell-based; design: endogenous in cells; host or cells: MIA Paca-2 cells; conditions: read-out: Degradation activity for differenct cell lines MIA Paca-2 (DC50)
T1 sequence (Q06124 1-593): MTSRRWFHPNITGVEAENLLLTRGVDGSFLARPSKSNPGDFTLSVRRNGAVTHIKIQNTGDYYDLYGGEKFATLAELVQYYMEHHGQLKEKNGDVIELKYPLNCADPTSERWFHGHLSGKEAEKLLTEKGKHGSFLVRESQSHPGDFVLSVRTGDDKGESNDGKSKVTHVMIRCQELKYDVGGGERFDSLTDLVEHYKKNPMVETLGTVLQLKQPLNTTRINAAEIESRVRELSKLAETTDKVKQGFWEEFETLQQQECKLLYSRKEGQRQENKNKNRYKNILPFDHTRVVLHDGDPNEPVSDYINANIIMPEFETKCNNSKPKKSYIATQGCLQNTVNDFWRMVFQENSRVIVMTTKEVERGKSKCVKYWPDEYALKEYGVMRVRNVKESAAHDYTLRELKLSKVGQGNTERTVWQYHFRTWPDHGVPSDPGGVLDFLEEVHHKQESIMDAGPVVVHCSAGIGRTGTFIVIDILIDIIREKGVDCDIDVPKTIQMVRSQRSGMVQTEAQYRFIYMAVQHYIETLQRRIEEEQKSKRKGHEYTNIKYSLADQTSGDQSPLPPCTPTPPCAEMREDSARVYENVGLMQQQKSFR
Summary of the method: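 DC50 is the concentration degrading 50% of SHP2 relative to DMSO control. It was derived by fitting Western blot band densitometry (anti-SHP2, GAPDH reference) from cells exposed 24 h to 0.1–100 nM compound in 0.1% DMSO.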

**Q.** Which DC50 does the source give for CC1(N)CCN(c2cnc(Sc3cccc(NC(=O)c4ccc(N5CCC(N6CCN(c7ccc(C(=O)NCc8ccc9c(c8)CN(C8CCC(=O)NC8=O)C9=O)nn7)CC6)CC5)nc4)c3)cn2)CC1 (stereo not drawn) [Compound 437] here?
**A.** Its DC50 is less than 0.1 µM.

**Q.** With Cc1cc(N2CCC(N3CC=C(c4cnc(C(=O)NCc5ccc6c(c5)CN(C5CCC(=O)NC5=O)C6=O)c(F)c4)CC3)CC2)ccc1C(=O)Nc1cccc(Sc2cnc(N3CCC(C)(N)CC3)cn2)c1 (stereo not drawn) [Compound 438] as the compound, how does the DC50 read?
**A.** The DC50 was less than 0.1 µM.

**Q.** How did the DC50 turn out when Cc1cc(C(=O)Nc2cccc(Sc3cnc(N4CCC(C)(N)CC4)cn3)c2)ccc1N1CCC(N2CC=C(c3cnc(C(=O)NCc4ccc5c(c4)CN(C4CCC(=O)NC4=O)C5=O)c(Cl)c3)CC2)CC1 (stereo not drawn) [Compound 440] was run?
**A.** Its DC50 is greater than 1 µM.

**Q.** Cc1cc(C(=O)Nc2cccc(Sc3cnc(N4CCC(C)(N)CC4)cn3)c2)ccc1N1CCC(N2CC=C(c3ccc(C(=O)NCc4ccc5c(c4)CN(C4CCC(=O)NC4=O)C5=O)nc3Cl)CC2)CC1 (stereo not drawn) [Compound 441] was tested. Which DC50 did it give?
**A.** Its DC50 is greater than 1 µM.

**Q.** Cc1cc(N2CCC(N3CC=C(c4ccc(C(=O)NCc5ccc6c(c5)CN(C5CCC(=O)NC5=O)C6=O)nc4Cl)CC3)CC2)ccc1C(=O)Nc1cccc(Sc2cnc(N3CCC(C)(N)CC3)cn2)c1 (stereo not drawn) [Compound 444] was tested. Which DC50 did it give?
**A.** The DC50 was less than 0.1 µM.

**Q.** Which DC50 does the source give for CC1(N)CCN(c2cnc(Sc3cccc(NC(=O)c4ccc(N5CCC(N6CCN(c7ccc(C(=O)NCc8ccc9c(c8)CN(C8CCC(=O)NC8=O)C9=O)nn7)CC6)CC5)cn4)c3)cn2)CC1 (stereo not drawn) [Compound 447] here?
**A.** The DC50 was greater than 1 µM.

**Q.** CC1(N)CCN(c2cnc(Sc3cccc(NC(=O)c4ncc(N5CCC(N6CCN(c7ccc(C(=O)NCc8ccc9c(c8)CN(C8CCC(=O)NC8=O)C9=O)nn7)CC6)CC5)cn4)c3)cn2)CC1 (stereo not drawn) [Compound 449] was tested. Which DC50 did it give?
**A.** Its DC50 is less than 0.1 µM.

**Q.** With CC1(N)CCN(c2cnc(Sc3cccc(NC(=O)c4ccc(N5CCC(N6CCN(c7ccc(C(=O)NCc8ccc9c(c8)CN(C8CCC(=O)NC8=O)C9=O)nc7)CC6)CC5)nn4)c3)cn2)CC1 (stereo not drawn) [Compound 450] as the compound, how does the DC50 read?
**A.** Its DC50 is less than 0.1 µM.

**Q.** Which DC50 does the source give for Cc1cc(C(=O)Nc2cccc(Sc3cnc(N4CCC(C)(N)CC4)cn3)c2)ccc1N1CCC(N2CC=C(c3cnc(C(=O)NCc4ccc5c(c4)CN(C4CCC(=O)NC4=O)C5=O)cc3Cl)CC2)CC1 (stereo not drawn) [Compound 452] here?
**A.** Its DC50 is less than 0.1 µM.

**Q.** With Cc1cc(C(=O)Nc2cccc(Sc3cnc(N4CCC(C)(N)CC4)cn3)c2)ccc1N1CCC(N2CC=C(c3ccc(C(=O)NCc4ccc5c(c4)CN(C4CCC(=O)NC4=O)C5=O)cc3)CC2)CC1 (stereo not drawn) [Compound 453] as the compound, how does the DC50 read?
**A.** Its DC50 is 0.1 to 1 µM.

**Q.** How did the DC50 turn out when Cc1cc(N2CCC(N3CC=C(c4ccc(C(=O)NCc5ccc6c(c5)CN(C5CCC(=O)NC5=O)C6=O)cc4)CC3)CC2)ccc1C(=O)Nc1cccc(Sc2cnc(N3CCC(C)(N)CC3)cn2)c1 (stereo not drawn) [Compound 454] was run?
**A.** The DC50 was 0.1 to 1 µM.

**Q.** How did the DC50 turn out when Cc1cc(C(=O)NCc2ccc3c(c2)CN(C2CCC(=O)NC2=O)C3=O)ncc1C1=CCN(C2CCN(c3ccc(C(=O)Nc4cccc(Sc5cnc(N6CCC(C)(N)CC6)cn5)c4)cc3C)CC2)CC1 (stereo not drawn) [Compound 456] was run?
**A.** Its DC50 is 0.1 to 1 µM.

**Q.** Cc1cc(C(=O)NCc2ccc3c(c2)CN(C2CCC(=O)NC2=O)C3=O)ncc1C1=CCN(C2CCN(c3ccc(C(=O)Nc4cccc(Sc5cnc(N6CCC7(CC6)CO[C@@H](C)[C@H]7N)cn5)c4)cc3F)CC2)CC1 (stereo partly drawn) [Compound 458] was tested. Which DC50 did it give?
**A.** Its DC50 is greater than 1 µM.

**Q.** C[C@@H]1OCC2(CCN(c3cnc(Sc4cccc(NC(=O)c5ccc(N6CCC(N7CC=C(c8ccc(C(=O)NCc9ccc%10c(c9)CN(C9CCC(=O)NC9=O)C%10=O)cc8Cl)CC7)CC6)c(F)c5)c4)cn3)CC2)[C@@H]1N (stereo partly drawn) [Compound 459] was tested. Which DC50 did it give?
**A.** The DC50 was less than 0.1 µM.

**Q.** C[C@@H]1OCC2(CCN(c3cnc(Sc4cccc(NC(=O)c5ccc(N6CCC(N7CC=C(c8cnc(C(=O)NCc9ccc%10c(c9)CN(C9CCC(=O)NC9=O)C%10=O)cc8Cl)CC7)CC6)c(F)c5)c4)cn3)CC2)[C@@H]1N (stereo partly drawn) [Compound 460] was tested. Which DC50 did it give?
**A.** The DC50 was less than 0.1 µM.

**Q.** For Cc1nc(C(=O)NCc2ccc3c(c2)CN(C2CCC(=O)NC2=O)C3=O)ccc1C1=CCN(C2CCN(c3ccc(C(=O)Nc4cccc(Sc5cnc(N6CCC7(CC6)CO[C@@H](C)[C@H]7N)cn5)c4)cc3F)CC2)CC1 (stereo partly drawn) [Compound 461, N-{[2-(2,6-oxohexahydropyridin-3-yl)-1-oxo-2,3-dihydro-1H-isoindol-5-yl]methyl}-5-(1-{1-[2-fluoro-4-({[3-({5-[(3S,4S)-4-amino-3-methyl-8-aza-2-oxaspiro[4.5]decan-8-yl]pyrazin-2-yl}thio)phenyl]amino}carbonyl)phenyl]hexahydropyridine-4-yl}-1,2,3,6-tetrahydropyridin-4-yl)-6-methylpyridine-2-formamide hydrochloride], which DC50 is on record?
**A.** The DC50 was less than 0.1 µM.

**Q.** Which DC50 does the source give for Cc1cc(C2=CCN(C3CCN(c4ccc(C(=O)Nc5cccc(Sc6cnc(N7CCC8(CC7)CO[C@@H](C)[C@H]8N)cn6)c5)cc4F)CC3)CC2)cnc1C(=O)NCc1ccc2c(c1)CN(C1CCC(=O)NC1=O)C2=O (stereo partly drawn) [Compound 462] here?
**A.** Its DC50 is greater than 1 µM.

**Q.** C[C@@H]1OCC2(CCN(c3cnc(Sc4cccc(NC(=O)c5ccc(N6CCC(N7CC=C(c8ccc(C(=O)NCc9ccc%10c(c9)CN(C9CCC(=O)NC9=O)C%10=O)nc8Cl)CC7)CC6)c(F)c5)c4)cn3)CC2)[C@@H]1N (stereo partly drawn) [Compound 463] was tested. Which DC50 did it give?
**A.** The DC50 was greater than 1 µM.

**Q.** How did the DC50 turn out when C[C@@H]1OCC2(CCN(c3cnc(Sc4cccc(NC(=O)c5ccc(N6CCC(N7CC=C(c8cnc(C(=O)NCc9ccc%10c(c9)CN(C9CCC(=O)NC9=O)C%10=O)c(F)c8)CC7)CC6)c(F)c5)c4)cn3)CC2)[C@@H]1N (stereo partly drawn) [Compound 464] was run?
**A.** Its DC50 is less than 0.1 µM.

**Q.** With C[C@@H]1OCC2(CCN(c3cnc(Sc4cccc(NC(=O)c5ccc(N6CCC(N7CC=C(c8ncc(C(=O)NCc9ccc%10c(c9)CN(C9CCC(=O)NC9=O)C%10=O)cc8F)CC7)CC6)c(F)c5)c4)cn3)CC2)[C@@H]1N (stereo partly drawn) [Compound 466] as the compound, how does the DC50 read?
**A.** The DC50 was less than 0.1 µM.

**Q.** Which DC50 does the source give for Cc1cc(N2CCC(N3CC=C(c4ccc(C(=O)NCc5ccc6c(c5)CN(C5CCC(=O)NC5=O)C6=O)nc4F)CC3)CC2)ccc1C(=O)Nc1cccc(Sc2cnc(N3CCC(C)(N)CC3)cn2)c1 (stereo not drawn) [Compound 468] here?
**A.** The DC50 was less than 0.1 µM.

**Q.** With Cc1cc(C(=O)Nc2cccc(Sc3cnc(N4CCC(C)(N)CC4)cn3)c2)ccc1N1CCC(N2CC=C(c3ccc(C(=O)NCc4ccc5c(c4)CN(C4CCC(=O)NC4=O)C5=O)nc3F)CC2)CC1 (stereo not drawn) [Compound 469] as the compound, how does the DC50 read?
**A.** Its DC50 is 0.1 to 1 µM.

**Q.** With Cc1cc(C(=O)NCc2ccc3c(c2)CN(C2CCC(=O)NC2=O)C3=O)ncc1C1=CCN(C2CCN(c3ccc(C(=O)Nc4cccc(Sc5cnc(N6CCC(C)(N)CC6)cn5)c4)cc3F)CC2)CC1 (stereo not drawn) [Compound 470] as the compound, how does the DC50 read?
**A.** Its DC50 is 0.1 to 1 µM.

**Q.** Which DC50 does the source give for CC1(N)CCN(c2cnc(Sc3cccc(NC(=O)c4cc(F)c(N5CCC(N6CC=C(c7ccc(C(=O)NCc8ccc9c(c8)CN(C8CCC(=O)NC8=O)C9=O)nc7)CC6)CC5)c(F)c4)c3)cn2)CC1 (stereo not drawn) [Compound 471] here?
**A.** The DC50 was 0.1 to 1 µM.

**Q.** Which DC50 does the source give for C[C@@H]1OCC2(CCN(c3cnc(Sc4cccc(NC(=O)c5ccc(N6CCC(N7CC=C(c8ccc(C(=O)NCc9ccc%10c(c9)CN(C9CCC(=O)NC9=O)C%10=O)c(F)n8)CC7)CC6)c(F)c5)c4)cn3)CC2)[C@@H]1N (stereo partly drawn) [Compound 472] here?
**A.** The DC50 was 0.1 to 1 µM.

**Q.** For C[C@@H]1OCC2(CCN(c3cnc(Sc4cccc(NC(=O)C5CC6(C5)CC(N5CC=C(c7ccc(C(=O)NCc8ccc9c(c8)CN(C8CCC(=O)NC8=O)C9=O)nc7)CC5)C6)c4)cn3)CC2)[C@@H]1N (stereo partly drawn) [Compound 473], which DC50 is on record?
**A.** The DC50 was less than 0.1 µM.

**Q.** For C[C@@H]1OCC2(CCN(c3cnc(Sc4cccc(NC(=O)C5CCC(N6CC=C(c7ccc(C(=O)NCc8ccc9c(c8)CN(C8CCC(=O)NC8=O)C9=O)nc7)CC6)CC5)c4)cn3)CC2)[C@@H]1N (stereo partly drawn) [Compound 474], which DC50 is on record?
**A.** The DC50 was less than 0.1 µM.

**Q.** Which DC50 does the source give for C[C@@H]1OCC2(CCN(c3cnc(Sc4cccc(NC(=O)C5CC(N6CCN(c7ccc(C(=O)NCc8ccc9c(c8)CN(C8CCC(=O)NC8=O)C9=O)nn7)CC6)C5)c4)cn3)CC2)[C@@H]1N (stereo partly drawn) [Compound 475] here?
**A.** Its DC50 is greater than 1 µM.

**Q.** Which DC50 does the source give for C[C@@H]1OCC2(CCN(c3cnc(Sc4cccc(NC(=O)C5CCC(N6CCN(c7ccc(C(=O)NCc8ccc9c(c8)CN(C8CCC(=O)NC8=O)C9=O)nn7)CC6)CC5)c4)cn3)CC2)[C@@H]1N (stereo partly drawn) [Compound 476] here?
**A.** The DC50 was greater than 1 µM.

**Q.** Which DC50 does the source give for C[C@@H]1OCC2(CCN(c3cnc(Sc4cccc(NC(=O)C5CC(N6CC=C(c7ccc(C(=O)NCc8ccc9c(c8)CN(C8CCC(=O)NC8=O)C9=O)nc7)CC6)C5)c4)cn3)CC2)[C@@H]1N (stereo partly drawn) [Compound 477] here?
**A.** The DC50 was less than 0.1 µM.

**Q.** Which DC50 does the source give for C[C@@H]1OCC2(CCN(c3cnc(Sc4cccc(NC(=O)c5ccc(N6CCC(N7CC=C(c8ccc(C(=O)NCc9ccc%10c(c9)CN(C9CCC(=O)NC9=O)C%10=O)c(Cl)c8)CC7)CC6)c(F)c5)c4)cn3)CC2)[C@@H]1N (stereo partly drawn) [Compound 479] here?
**A.** Its DC50 is 0.1 to 1 µM.

**Q.** With Cc1cc(C(=O)NCc2ccc3c(c2)CN(C2CCC(=O)NC2=O)C3=O)ncc1C1=CCN(C2CCN(c3ccc(C(=O)Nc4cccc(Sc5cnc(N6CCC(C)(N)CC6)cn5)c4)cc3)CC2)CC1 (stereo not drawn) [Compound 480] as the compound, how does the DC50 read?
**A.** Its DC50 is less than 0.1 µM.

**Q.** CC1(N)CCN(c2cnc(Sc3cccc(NC(=O)c4ccc(N5CCC(N6CC=C(c7ccc(C(=O)NCc8ccc9c(c8)CN(C8CCC(=O)NC8=O)C9=O)nc7F)CC6)CC5)cc4)c3)cn2)CC1 (stereo not drawn) [Compound 481] was tested. Which DC50 did it give?
**A.** The DC50 was less than 0.1 µM.
